What was measured:
[1] = tested on: chronic prosthetic joint infections caused by Gram-positive bacteria; test: Microbiological and clinical cure after two-stage exchange with a single 1,500 mg dose; type: in vivo, human
[2] = Adverse events attributable to dalbavancin during follow-up; type: in vivo, human; details: single 1,500 mg i.v. dose, over administration and during follow-up, including changes in renal function; 20 patients
[3] = Population pharmacokinetic analysis (Monolix); type: in vivo, human
Protocol: The non-linear mixed-effect modeling software Monolix 2024R1 (Lixoft SAS, a Simulations Plus company) implementing the stochastic approximation expectation maximization algorithm was used for model development ([18]).
One- and multicompartment models with first-order elimination were tested. All individual parameters were assumed to be log-normally distributed. Inter-individual variability (IIV) was described using an exponential model. To describe residual variability, several error models (constant, proportional, or combined error model) were tested. The most appropriate structural model was selected based on the following criteria: Akaike information criterion, corrected Bayesian information criterion, usual goodness-of-fit plots, and relative standard errors. […] Model internal validation was based on goodness-of-fit plots, including observations versus individual (IPRED) and population predictions (PRED) and plots of normalized prediction distribution error (NPDE) versus PRED and time. A prediction-corrected visual predictive check (pc-VPC) was performed using 500 simulations with the final model ([21]), and non-parametric bootstrapping (n = 1,000) was used for assessing stability and robustness of the final model using Monolix 2024R1.

[4] = single 1,000 mg dose, 2 weeks post-administration, non-infected patients undergoing elective orthopedic surgery; cited from earlier work
From the text: Assessment of optimal antibiotic exposure at the site of the infection is challenging, especially for deep-seated infections, such as bone and joint, and often unbound plasma exposure is used as a worst-case scenario surrogate for target site exposure assuming that only the free (unbound) concentration can distribute to peripheral tissues ([37]). However, drug PK in the peripheral tissues depends not only on protein binding but also on other characteristics, such as drug’s molecular weight and physiochemistry, varying broadly across antibiotic classes ([38]). For dalbavancin, Dunne et al. perf ...

[5] = cited from earlier work
Protocol: Our observations were best described by a one-compartment model, which is in accordance with the sparse data gathered from routine clinical practice ([40]). […] A potential explanation is that the studies that report higher CL were performed ...

[6] = clinical; details: human, in vivo, iv, 1500 mg
Protocol: Blood samples obtained during the follow-up visits were processed immediately after extraction, centrifuged at 3,000 g for 10 min and frozen at −80°C until bioanalysis.

[7] = non-parametric bootstrap n = 1,000
[8] = one-compartment model, total concentrations, 18 patients with CPJI, single 1,500 mg i.v.

CN[C@H]1C(=O)N[C@@H]2Cc3ccc(cc3)Oc3cc4cc(c3O[C@@H]3O[C@H](C(=O)O)[C@@H](O)[C@H](O)[C@H]3NC(=O)CCCCCCCCC(C)C)Oc3ccc(cc3Cl)[C@@H](O)[C@@H]3NC(=O)[C@H](NC(=O)[C@@H]4NC(=O)[C@@H](NC2=O)c2cc(cc(O)c2Cl)Oc2cc1ccc2O)c1ccc(O)c(c1)-c1c(O[C@H]2O[C@H](CO)[C@@H](O)[C@H](O)[C@@H]2O)cc(O)cc1[C@@H](C(=O)NCCCN(C)C)NC3=O [dalbavancin]
Clinical failures or relapses ([1]; median follow-up of 693 days (IQI 630–824) after the second-stage procedure): no clinical failures or relapses | Second-stage surgery isolates ([1]; patient 2, hip, first-stage S. lugdunensis, after Daptomycin (4)-Cefazolin (7) days): No growth | Second-stage surgery isolates ([1]; patient 3, hip, first-stage E. faecalis, after Daptomycin (4)-Ampicillin (7) days): No growth | Second-stage surgery isolates ([1]; patient 4, hip, first-stage S. hominis, after Vancomycin (6)-Linezolid (9) days): No growth | Second-stage surgery isolates ([1]; patient 5, hip, first-stage S. epidermidis, after Daptomycin (10) days): No growth | Second-stage surgery isolates ([1]; patient 6, hip, first-stage S. epidermidis, after Vancomycin (13)-Daptomycin (3) days): No growth | Second-stage surgery isolates ([1]; patient 7, shoulder, first-stage S. epidermidis, after Vancomycin (3)-Daptomycin (5) days): No growth | Second-stage surgery isolates ([1]; patient 8, knee, first-stage C. acnes, after Vancomycin (8) days): No growth | Second-stage surgery isolates ([1]; patient 9, hip, first-stage S. epidermidis, after Vancomycin (20) days): No growth | Second-stage surgery isolates ([1]; patient 10, hip, first-stage S. epidermidis, C. acnes, after Vancomycin (3)-Daptomycin (9) days): No growth | Second-stage surgery isolates ([1]; patient 11, knee, first-stage S. epidermidis, after Vancomycin (7) days): No growth | Second-stage surgery isolates ([1]; patient 12, knee, first-stage C. acnes, after Vancomycin (3)-Linezolid (5) days): No growth | Second-stage surgery isolates ([1]; patient 13, knee, first-stage S. epidermidis, after Vancomycin (10) days): No growth | Second-stage surgery isolates ([1]; patient 14, knee, first-stage S. epidermidis, after Vancomycin (7)-Linezolid (5) days): No growth | Second-stage surgery isolates ([1]; patient 15, hip, first-stage S. capitis, C. acnes, after Vancomycin (7)-Daptomycin (10) days): No growth | Second-stage surgery isolates ([1]; patient 16, knee, first-stage S. capitis, S. pettenkoferi, after Vancomycin (5)-Daptomycin (7) days): No growth | Second-stage surgery isolates ([1]; patient 17, shoulder, first-stage C. acnes, after Vancomycin (10) days): S. epidermidis S. hominis | Second-stage surgery isolates ([1]; patient 18, hip, first-stage S. epidermidis, after Vancomycin (10)-Linezolid (13) days): No growth | Second-stage surgery isolates ([1]; patient 19, hip, first-stage S. epidermidis, C. acnes, after Vancomycin (4)-Tedizolid (14) days): No growth | Second-stage surgery isolates ([1]; patient 20, hip, first-stage S. epidermidis, after Daptomycin (12) days): No growth | Microbiological cure rate ([1]; single 1,500 mg i.v. dose after median 11.5 days systemic antibiotics, vancomycin-gentamicin spacer, negative intraoperative cultures at second-stage surgery): 94.7% | Adverse events [2]: No adverse events were reported | CL, clearance, bootstrap median (95% CI) [3, 7]: 0.037 (0.031–0.043) L/h | V, volume of distribution, bootstrap median (95% CI) [3, 7]: 18.0 (16.0–20.3) L | CL, clearance, estimate (% RSE) [3, 8]: 0.036 (8.2 %) [12.6%] L/h | V, volume of distribution, estimate (% RSE) [3, 8]: 17.9 (6.2 %) [18.1%] L | Measured amount in homogenized cortical bone [4]: 4.1 µg/g | CL reported in healthy volunteers and patients with acute infections [5]: 0.050 L/h | level at 336 h [6]: 58500 ng/mL | level at 504 h [6]: 29700 ng/mL | level at 672 h [6]: 13300 ng/mL

Source: publication PMC12691635 (Antimicrobial Agents and Chemotherapy, 2025)
